In patent US9540366B2, “Ring-fused heterocyclic compound” (Kyowa Hakko Kirin Co., Ltd., priority 2012, dated 2017):
Read-outs that look alike come from different tables or passages of the source.

Biological target: T1, human Cav3.2 T-type Ca2+ channel (Homo sapiens, UniProt O95180)
T1 construct: expressed in transfected cells; host or cells: KJMGER8 cells (Namalwa cell-derived cell line)
Experiment: Inhibitory effect for intracellular calcium response via Cav3.2 T-type Ca2+ channels (FLIPR Calcium 3 Assay Kit)
Format: cell-based

[1] = human Cav3.2-expressing KJMGER8 cells (Namalwa-derived), calcium response induced by 5 mmol/L CaCl2, 3 μmol/L mibefradil as reference, read-out: IC50 for the human Cav3.2 T-type Ca2+ current

T1 sequence (O95180 whole entry): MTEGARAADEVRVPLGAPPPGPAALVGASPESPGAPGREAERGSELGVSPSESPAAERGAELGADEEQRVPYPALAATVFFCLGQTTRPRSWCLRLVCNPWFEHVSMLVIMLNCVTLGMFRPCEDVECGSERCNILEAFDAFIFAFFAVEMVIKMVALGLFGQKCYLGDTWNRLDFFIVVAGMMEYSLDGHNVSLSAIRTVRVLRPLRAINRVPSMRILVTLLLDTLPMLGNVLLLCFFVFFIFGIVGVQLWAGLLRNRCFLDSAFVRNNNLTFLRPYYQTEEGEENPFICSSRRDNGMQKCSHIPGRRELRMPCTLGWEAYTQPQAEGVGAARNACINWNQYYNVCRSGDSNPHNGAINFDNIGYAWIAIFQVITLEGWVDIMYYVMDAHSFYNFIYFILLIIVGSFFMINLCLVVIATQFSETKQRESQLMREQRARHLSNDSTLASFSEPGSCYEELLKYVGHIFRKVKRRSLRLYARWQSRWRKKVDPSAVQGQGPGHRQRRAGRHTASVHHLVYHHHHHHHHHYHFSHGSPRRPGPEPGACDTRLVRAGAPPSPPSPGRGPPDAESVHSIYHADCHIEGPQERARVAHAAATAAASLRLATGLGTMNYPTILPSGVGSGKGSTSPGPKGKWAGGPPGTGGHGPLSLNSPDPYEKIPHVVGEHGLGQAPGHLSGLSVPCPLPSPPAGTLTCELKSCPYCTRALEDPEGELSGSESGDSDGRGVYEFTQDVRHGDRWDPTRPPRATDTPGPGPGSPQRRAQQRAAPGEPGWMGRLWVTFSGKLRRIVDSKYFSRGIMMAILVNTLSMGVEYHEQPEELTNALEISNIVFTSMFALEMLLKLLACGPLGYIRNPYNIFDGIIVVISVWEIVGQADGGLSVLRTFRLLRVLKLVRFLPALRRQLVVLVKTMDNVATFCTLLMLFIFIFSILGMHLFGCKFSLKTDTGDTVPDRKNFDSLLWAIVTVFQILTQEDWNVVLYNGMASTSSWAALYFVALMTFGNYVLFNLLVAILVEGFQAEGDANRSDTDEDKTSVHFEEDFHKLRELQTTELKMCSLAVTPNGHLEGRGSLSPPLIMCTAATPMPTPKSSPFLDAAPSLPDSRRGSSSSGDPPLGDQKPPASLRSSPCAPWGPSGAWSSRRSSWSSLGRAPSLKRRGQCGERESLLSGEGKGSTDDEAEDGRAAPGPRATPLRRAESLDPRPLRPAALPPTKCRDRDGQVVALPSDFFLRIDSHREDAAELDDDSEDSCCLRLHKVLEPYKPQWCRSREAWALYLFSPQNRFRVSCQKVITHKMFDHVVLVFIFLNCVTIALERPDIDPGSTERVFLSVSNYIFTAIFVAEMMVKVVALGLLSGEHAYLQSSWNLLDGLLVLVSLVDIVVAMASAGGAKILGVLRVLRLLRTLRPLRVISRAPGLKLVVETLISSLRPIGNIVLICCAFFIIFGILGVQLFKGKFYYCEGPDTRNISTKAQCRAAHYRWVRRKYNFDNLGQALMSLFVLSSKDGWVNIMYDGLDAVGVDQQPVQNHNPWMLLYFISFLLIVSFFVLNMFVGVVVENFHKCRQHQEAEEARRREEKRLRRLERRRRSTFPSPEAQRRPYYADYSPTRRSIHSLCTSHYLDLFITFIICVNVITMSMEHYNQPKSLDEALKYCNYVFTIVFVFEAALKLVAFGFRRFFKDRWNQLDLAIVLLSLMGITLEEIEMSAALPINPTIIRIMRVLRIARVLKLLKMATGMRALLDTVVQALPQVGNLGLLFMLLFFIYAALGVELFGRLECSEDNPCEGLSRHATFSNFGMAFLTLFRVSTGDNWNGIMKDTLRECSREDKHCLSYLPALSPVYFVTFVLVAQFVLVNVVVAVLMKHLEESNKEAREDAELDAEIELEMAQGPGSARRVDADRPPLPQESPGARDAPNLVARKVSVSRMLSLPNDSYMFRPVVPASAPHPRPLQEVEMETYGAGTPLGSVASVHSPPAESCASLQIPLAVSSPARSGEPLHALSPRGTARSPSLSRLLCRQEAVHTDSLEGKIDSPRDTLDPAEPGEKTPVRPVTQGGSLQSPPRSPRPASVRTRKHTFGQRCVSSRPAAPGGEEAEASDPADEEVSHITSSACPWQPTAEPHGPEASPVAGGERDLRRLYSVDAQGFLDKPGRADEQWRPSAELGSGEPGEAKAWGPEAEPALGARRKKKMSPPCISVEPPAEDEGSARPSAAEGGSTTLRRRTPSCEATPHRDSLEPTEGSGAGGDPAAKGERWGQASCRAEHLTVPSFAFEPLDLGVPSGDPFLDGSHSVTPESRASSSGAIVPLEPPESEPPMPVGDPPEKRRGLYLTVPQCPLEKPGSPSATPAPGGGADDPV

CC(=O)c1nc2cc(C(=O)Nc3ccccc3)cc(C)n2c1CC1CCC(F)(F)CC1 [Compound 19, 2-Acetyl-3-[(4,4-difluorocyclohexyl)methyl]-5-methyl-N-phenylimidazo[1,2-a]pyridine-7-carboxamide]
IC50: ≤ 100 nM

Cc1cc(C(=O)Nc2ccccc2)cc2nc(C(C)O)c(CC3CCC(F)(F)CC3)n12 (stereo not drawn) [Compound 20, 3-[(4,4-Difluorocyclohexyl)methyl]-2-(1-hydroxyethyl)-5-methyl-N-phenylimidazo[1,2-a]pyridine-7-carboxamide]
IC50 [1]: ≤ 100 nM

CC(F)(F)c1nc2cc(C(=O)NCC3CC3)c(Cl)cn2c1CC1CCC(F)(F)CC1 [Compound 21, 6-Chloro-N-(cyclopropylmethyl)-3-[(4,4-difluorocyclohexyl)methyl]-2-(1,1-difluoroethyl)imidazo[1,2-a]pyridine-7-carboxamide]
IC50: ≤ 100 nM

CC(F)(F)c1nc2cc(C(=O)NC3CCC3)c(Cl)cn2c1CC1CCC(F)(F)CC1 [Compound 22, 6-Chloro-N-cyclobutyl-3-[(4,4-difluorocyclohexyl)methyl]-2-(1,1-difluoroethyl)imidazo[1,2-a]pyridine-7-carboxamide]
IC50: ≤ 100 nM

CC1(C)CC(NC(=O)c2cc3nc(C(C)(F)F)c(CC4CCC(F)(F)CC4)n3cc2Cl)CCO1 (stereo not drawn) [Compound 23, 6-Chloro-3-[(4,4-difluorocyclohexyl)methyl]-2-(1,1-difluoroethyl)-N-(2,2-dimethyltetrahydro-2H-pyran-4-yl)imidazo[1,2-a]pyridine-7-carboxamide]
IC50: ≤ 100 nM

CC(F)(F)c1nc2cc(C(=O)NCC3CCOC3)c(Cl)cn2c1CC1CCC(F)(F)CC1 (stereo not drawn) [Compound 24, 6-Chloro-3-[(4,4-difluorocyclohexyl)methyl]-2-(1,1-difluoroethyl)-N-[(tetrahydrofuran-3-yl)methyl]imidazo[1,2-a]pyridine-7-carboxamide]
IC50: ≤ 100 nM

CC(F)(F)c1nc2cc(C(=O)NC3CCC(O)CC3)c(Cl)cn2c1CC1CCC(F)(F)CC1 (stereo not drawn) [Compound 25, 6-Chloro-3-[(4,4-difluorocyclohexyl)methyl]-2-(1,1-difluoroethyl)-N-(4-hydroxycyclohexyl)imidazo[1,2-a]pyridine-7-carboxamide]
IC50: ≤ 100 nM

CC(C)(O)CNC(=O)c1cc2nc(C(C)(F)F)c(CC3CCC(F)(F)CC3)n2cc1Cl [Compound 26, 6-Chloro-3-[(4,4-difluorocyclohexyl)methyl]-2-(1,1-difluoroethyl)-N-(2-hydroxy-2-methylpropyl)imidazo[1,2-a]pyridine-7-carboxamide]
IC50: ≤ 100 nM

CCC(F)(F)c1nc2cc(C(=O)NC3CCOCC3)cc(C)n2c1CC1CCC(F)(F)CC1 [Compound 27, 3-[(4,4-Difluorocyclohexyl)methyl]-2-(1,1-difluoropropyl)-5-methyl-N-(tetrahydro-2H-pyran-4-yl)imidazo[1,2-a]pyridine-7-carboxamide]
IC50: ≤ 100 nM

Cc1cc(NC(=O)c2cc3nc(C(C)(C)Cl)c(S(=O)(=O)N4CC(F)(F)C4)n3cc2Cl)on1 [Compound 28, 6-Chloro-2-(2-chloropropan-2-yl)-3-(3,3-difluoroazetidin-1-ylsulfonyl)-N-(3-methylisoxazol-5-yl)imidazo[1,2-a]pyridine-7-carboxamide]
IC50 [1]: ≤ 100 nM

Cc1cc(C(=O)NC2CCOCC2)cc2nc(C(C)C)c(N(C)C3CCCCC3)n12 [Compound 34, 3-[Cyclohexyl(methyl)amino]-2-isopropyl-5-methyl-N-(tetrahydro-2H-pyran-4-yl)imidazo[1,2-a]pyridine-7-carboxamide]
IC50 [1]: ≤ 100 nM

O=C(NC1CCOCC1)c1cc(Br)n2c(CC3CCC(F)(F)CC3)c(C(F)(F)F)nc2c1 [Compound 39]
IC50: ≤ 100 nM

O=Cc1cc(C(=O)NC2CCOCC2)cc2nc(C(F)(F)F)c(CC3CCC(F)(F)CC3)n12 [Compound 45, 3-[(4,4-Difluorocyclohexyl)methyl]-5-formyl-N-(tetrahydro-2H-pyran-4-yl)-2-(trifluoromethyl)imidazo[1,2-a]pyridine-7-carboxamide]
IC50: ≤ 100 nM

O=C(NC1CCOCC1)c1cc(CF)n2c(CC3CCC(F)(F)CC3)c(C(F)(F)F)nc2c1 [Compound 47, 3-[(4,4-Difluorocyclohexyl)methyl]-5-(fluoromethyl)-N-(tetrahydro-2H-pyran-4-yl)-2-(trifluoromethyl)imidazo[1,2-a]pyridine-7-carboxamide]
IC50: ≤ 100 nM

O=C(NC1CCOCC1)c1cc(C(F)F)n2c(CC3CCC(F)(F)CC3)c(C(F)(F)F)nc2c1 [Compound 48, 3-[(4,4-Difluorocyclohexyl)methyl]-5-(difluoromethyl)-N-(tetrahydro-2H-pyran-4-yl)-2-(trifluoromethyl)imidazo[1,2-a]pyridine-7-carboxamide]
IC50: ≤ 100 nM

O=C(NC1CCOCC1)c1cc(O)n2c(CC3CCC(F)(F)CC3)c(C(F)(F)F)nc2c1 [Compound 49, 3-[(4,4-Difluorocyclohexyl)methyl]-5-hydroxy-N-(tetrahydro-2H-pyran-4-yl)-2-(trifluoromethyl)imidazo[1,2-a]pyridine-7-carboxamide]
IC50: ≤ 100 nM

C#Cc1cc(C(=O)NC2CCOCC2)cc2nc(C(F)(F)F)c(CC3CCC(F)(F)CC3)n12 [Compound 50, 3-[(4,4-Difluorocyclohexyl)methyl]-5-ethynyl-N-(tetrahydro-2H-pyran-4-yl)-2-(trifluoromethyl)imidazo[1,2-a]pyridine-7-carboxamide]
IC50 [1]: ≤ 100 nM

CC(C)(O)CNC(=O)c1cc(C#N)n2c(CC3CCC(F)(F)CC3)c(C(F)(F)F)nc2c1 [Compound 51, 5-Cyano-3-[(4,4-difluorocyclohexyl)methyl]-N-(2-hydroxy-2-methylpropyl)-2-(trifluoromethyl)imidazo[1,2-a]pyridine-7-carboxamide]
IC50: ≤ 100 nM

N#Cc1cc(C(=O)Nc2ccccc2N)cc2nc(C(F)(F)F)c(CC3CCC(F)(F)CC3)n12 [Compound 52, N-(2-Aminophenyl)-5-cyano-3-[(4,4-difluorocyclohexyl)methyl]-2-(trifluoromethyl)imidazo[1,2-a]pyridine-7-carboxamide]
IC50: ≤ 100 nM

N#Cc1cc(C(=O)NC2CCC2)cc2nc(C(F)(F)F)c(CC3CCC(F)(F)CC3)n12 [Compound 54, 5-Cyano-N-cyclobutyl-3-[(4,4-difluorocyclohexyl)methyl]-2-(trifluoromethyl)imidazo[1,2-a]pyridine-7-carboxamide]
IC50: ≤ 100 nM

N#Cc1cc(C(=O)N[C@H]2CC[C@H](O)CC2)cc2nc(C(F)(F)F)c(CC3CCC(F)(F)CC3)n12 [Compound 56, 5-Cyano-3-[(4,4-difluorocyclohexyl)methyl]-N-[(1R,4R)-4-hydroxycyclohexyl]-2-(trifluoromethyl)imidazo[1,2-a]pyridine-7-carboxamide]
IC50: ≤ 100 nM

CC1(C)CC(NC(=O)c2cc(C#N)n3c(CC4CCC(F)(F)CC4)c(C(F)(F)F)nc3c2)CCO1 (stereo not drawn) [Compound 57, 5-Cyano-3-[(4,4-difluorocyclohexyl)methyl]-N-(2,2-dimethyltetrahydro-2H-pyran-4-yl)-2-(trifluoromethyl)imidazo[1,2-a]pyridine-7-carboxamide]
IC50: ≤ 100 nM

N#Cc1cc(C(=O)NC2(CO)CCOCC2)cc2nc(C(F)(F)F)c(CC3CCC(F)(F)CC3)n12 [Compound 58, 5-Cyano-3-[(4,4-difluorocyclohexyl)methyl]-N-[4-(hydroxymethyl)tetrahydro-2H-pyran-4-yl]-2-(trifluoromethyl)imidazo[1,2-a]pyridine-7-carboxamide]
IC50: ≤ 100 nM

N#Cc1cc(C(=O)NCC2COCCO2)cc2nc(C(F)(F)F)c(CC3CCC(F)(F)CC3)n12 (stereo not drawn) [Compound 59, N-[(1,4-Dioxan-2-yl)methyl]-5-cyano-3-[(4,4-difluorocyclohexyl)methyl]-2-(trifluoromethyl)imidazo[1,2-a]pyridine-7-carboxamide]
IC50 [1]: ≤ 100 nM

N#Cc1cc(C(=O)NC2COC2)cc2nc(C(F)(F)F)c(CC3CCC(F)(F)CC3)n12 [Compound 60]
IC50 [1]: ≤ 100 nM

N#Cc1cc(C(=O)NC2CCOC2)cc2nc(C(F)(F)F)c(CC3CCC(F)(F)CC3)n12 (stereo not drawn) [Compound 62]
IC50: ≤ 100 nM

CC(C)(NC(=O)c1cc(C#N)n2c(CC3CCC(F)(F)CC3)c(C(F)(F)F)nc2c1)C1CCOCC1 [Compound 63, 5-Cyano-3-[(4,4-difluorocyclohexyl)methyl]-N-[2-(tetrahydro-2H-pyran-4-yl)propan-2-yl]-2-(trifluoromethyl)imidazo[1,2-a]pyridine-7-carboxamide]
IC50: ≤ 100 nM

N#Cc1cc(C(=O)NC2CCCOC2)cc2nc(C(F)(F)F)c(CC3CCC(F)(F)CC3)n12 (stereo not drawn) [Compound 64]
IC50 [1]: ≤ 100 nM

N#Cc1cc(C(=O)NOC2CCOCC2)cc2nc(C(F)(F)F)c(CC3CCC(F)(F)CC3)n12 [Compound 65]
IC50: ≤ 100 nM

N#Cc1cc(C(=O)NC2(C3CCOCC3)CC2)cc2nc(C(F)(F)F)c(CC3CCC(F)(F)CC3)n12 [Compound 66, 5-Cyano-3-[(4,4-difluorocyclohexyl)methyl]-N-[1-(tetrahydro-2H-pyran-4-yl)cyclopropyl]-2-(trifluoromethyl)imidazo[1,2-a]pyridine-7-carboxamide]
IC50: ≤ 100 nM

N#Cc1cc(C(=O)NCC(=O)c2ccccc2)cc2nc(C(F)(F)F)c(CC3CCC(F)(F)CC3)n12 [Compound 67, 5-Cyano-3-[(4,4-difluorocyclohexyl)methyl]-N-(2-oxo-2-phenylethyl)-2-(trifluoromethyl)imidazo[1,2-a]pyridine-7-carboxamide]
IC50: ≤ 100 nM

N#Cc1cc(C(=O)NCC2(O)CC2)cc2nc(C(F)(F)F)c(CC3CCC(F)(F)CC3)n12 [Compound 69, 5-Cyano-3-[(4,4-difluorocyclohexyl)methyl]-N-[(1-hydroxycyclopropyl)methyl]-2-(trifluoromethyl)imidazo[1,2-a]pyridine-7-carboxamide]
IC50: ≤ 100 nM

N#Cc1cc(C(=O)NC2CCC3(CC2)COC3)cc2nc(C(F)(F)F)c(CC3CCC(F)(F)CC3)n12 [Compound 70, 5-Cyano-3-[(4,4-difluorocyclohexyl)methyl]-N-(2-oxaspiro[3.5]nonan-7-yl)-2-(trifluoromethyl)imidazo[1,2-a]pyridine-7-carboxamide]
IC50 [1]: ≤ 100 nM
